The values below come from patent US20110294810A1, “SUBSTITUTED (PYRIDYL)-AZINYLAMINE DERIVATIVES AS PLANT PROTECTION AGENTS” (priority 2008, published 2011).

The first series can be described thus: Measurement of logP values by HPLC on reversed phase columns (EEC directive 79/831 Annex V.A8). The note with it: HPLC on reversed phase columns; usually LC-MS at pH 2.7 with 0.1% formic acid in water and acetonitrile, linear gradient 10% to 95% acetonitrile. Type of series: physicochemical.
Compound `CN(Cc1cc(-c2ccnc(Nc3cccc(Cl)c3)n2)ccn1)CC1OCCO1` [Compound A44] yielded a log p of 1.79.

As to `CN(Cc1cc(-c2ccnc(Nc3cccc(Cl)c3)n2)ccn1)CC1CC1` [Example A40], the log p is given as 1.84.

Turning to `Clc1cccc(Nc2nccc(-c3ccnc(CN4CCCC4)c3)n2)c1` [Example A47], the log p is 1.7.

`CCOC(=O)C1CCCN(Cc2cc(-c3ccnc(Nc4cccc(Cl)c4)n3)ccn2)C1` (centres unmarked) [Example A57] returned a log p of 1.98.

The series is the same for the next values; noted with them: pH 2.7.
For the compound `O=C(NCc1cc(-c2ccnc(Nc3cccc(Cl)c3)n2)ccn1)C1CCCC1` [Example A3], the log p came to 2.88.

`Clc1cccc(Nc2nccc(-c3ccnc(CN4CCOCC4)c3)n2)c1` [Example A50] displayed a log p of 1.6.

The compound `CN(C)Cc1cc(-c2ccnc(Nc3cccc(Cl)c3)n2)ccn1` [Compound A41] had a log p of 1.57.

`CCCCCSCc1cc(-c2ccnc(Nc3cccc(Cl)c3)n2)ccn1` [Example A74] yielded a log p of 5.08.

Consider `CCCCC(=O)OCc1cc(-c2ccnc(Nc3cccc(Cl)c3)n2)ccn1` [Example A23], for which the log p turned out to be 4.29.

The compound `CCCN(C)Cc1cc(-c2ccnc(Nc3cccc(Cl)c3)n2)ccn1` [Compound A65] gave a log p of 1.81.

`COCC(=O)NC(C)c1cc(-c2ccnc(N(C(=O)COC)c3cccc(Cl)c3)n2)ccn1` (centres unmarked) [Compound A81] registered a log p of 2.11.

The compound `CC(C)(C)OC(=O)NCc1cc(-c2ncnc(Nc3cccc(Cl)c3)n2)ccn1` [Compound C1] showed a log p of 3.1.

On to `O=C(NCc1cc(-c2ccnc(Nc3cccc(Cl)c3)n2)ccn1)C1CC1` [Compound A12], for which the log p amounted to 2.39.

In turn, `COCCC(=O)OCc1cc(-c2ccnc(Nc3cccc(Cl)c3)n2)ccn1` [Example A34] gave a log p of 3.13.

`C=C(C)C(=O)OCc1cc(-c2ccnc(Nc3cccc(Cl)c3)n2)ccn1` [Compound A87] came in with a log p of 3.78.

As to `CCN(C)Cc1cc(-c2ccnc(Nc3cccc(Cl)c3)n2)ccn1` [Compound A52], the log p came out at 1.66.

`O=C(OCc1cc(-c2ccnc(N(C(=O)C3CCCC3)c3cccc(Cl)c3)n2)ccn1)C1CCCC1` [Example A35] showed a log p of 4.86.

In the case of `CCCCCC(=O)OCc1cc(-c2ccnc(Nc3cccc(Cl)c3)n2)ccn1` [Compound A19], the log p is reported as 4.73.

As for `CC(=O)OCc1cc(-c2ccnc(Nc3cccc(Cl)c3)n2)ccn1` [Compound A18], the log p turned out to be 3.02.

For the compound `CN(CCC#N)Cc1cc(-c2ccnc(Nc3cccc(Cl)c3)n2)ccn1` [Compound A64], the log p came out at 1.74.

`N#CCc1cc(-c2ccnc(Nc3cccc(Cl)c3)n2)ccn1` [Compound A94] returned a log p of 2.94.

Take `CCCCC(=O)OCc1cc(-c2ccnc(N(C(=O)CCCC)c3cccc(Cl)c3)n2)ccn1` [Example A29]: the log p came to 4.65.

Take `COCC(=O)NCc1cc(-c2ccnc(Nc3cccc(Cl)c3)n2)ccn1` [Example A11]: the log p came out at 2.33.

On to `CCC(C)CSCc1cc(-c2ccnc(Nc3cccc(Cl)c3)n2)ccn1` (centres unmarked) [Compound A77], for which the log p is 5.

In turn, `N#CCCCCSCc1cc(-c2ccnc(Nc3cccc(Cl)c3)n2)ccn1` [Compound A76] registered a log p of 3.35.

Regarding `CCCCSCc1cc(-c2ccnc(Nc3cccc(Cl)c3)n2)ccn1` [Compound A71], the log p was 4.56.

With `CCSCCNCc1cc(-c2ccnc(Nc3cccc(Cl)c3)n2)ccn1` [Example A66], the log p was found to be 2.1.

The series is the same for the next values; noted with them: reversed phase HPLC column; HPLC on reversed phase columns; usual method: LC-MS at pH 2.7, 0.1% formic acid in water / acetonitrile, linear gradient 10% to 95% acetonitrile; read-out: logP.
For `CC(=O)OC(C)c1cc(-c2ccnc(Nc3cccc(Cl)c3)n2)ccn1` (centres unmarked) [Compound A98, 1-(4-{2-[(3-chlorophenyl)amino]pyrimidin-4-yl}pyridin-2-yl)ethyl acetate], the chromatographic logP worked out at 3.33.

The same series, now with this note: reversed phase HPLC column; HPLC on reversed phase columns; usually LC-MS at pH 2.7 with 0.1% formic acid in water and acetonitrile, linear gradient 10% to 95% acetonitrile; read-out: log p.
Consider `ClCc1cc(-c2ccnc(Nc3cccc(Cl)c3)n2)ccn1` [Compound A15, 4-[2-(chloromethyl)pyridin-4-yl]-N-(3-chlorophenyl)pyrimidin-2-amine], for which the chromatographic logP stood at 3.46.
